{"source": "paper PMC7048932", "about": "“Examining sterically demanding lysine analogs for histone lysine methyltransferase catalysis” (Scientific Reports, 2020)", "key": {"SETD8 [1]": {"target": "T1, SETD8 (Homo sapiens, UniProt Q9NQR1)", "T1 construct": "His6 (N); made in house; host or cells: E. coli BL21 (DE3)pLysS-rosetta", "T1 sequence (Q9NQR1 1-393)": "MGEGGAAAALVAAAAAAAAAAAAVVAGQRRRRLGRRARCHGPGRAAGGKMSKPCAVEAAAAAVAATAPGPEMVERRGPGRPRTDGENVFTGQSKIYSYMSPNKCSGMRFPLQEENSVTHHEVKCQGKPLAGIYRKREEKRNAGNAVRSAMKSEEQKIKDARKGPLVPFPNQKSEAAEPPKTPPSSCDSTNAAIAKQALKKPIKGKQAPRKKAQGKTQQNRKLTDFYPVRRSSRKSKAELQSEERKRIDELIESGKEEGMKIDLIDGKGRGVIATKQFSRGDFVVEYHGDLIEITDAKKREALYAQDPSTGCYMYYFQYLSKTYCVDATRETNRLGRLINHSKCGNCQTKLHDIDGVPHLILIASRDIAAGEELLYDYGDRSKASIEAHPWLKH", "test": "MALDI-TOF MS methylation assay of H4K20 peptides with SETD8", "type": "biochemical", "settings": "peptide 100 µM, 37 °C; for SETD8-catalyzed methylation, result in words, increased SETD8/SAM and prolonged incubation: SETD8 10 µM, SAM 1 mM, 1 h and 5 h, MALDI-MS", "method": "MALDI-MS methyltransferases activity experiments were performed using a Bruker instrument in the reflectron positive mode. […] In case of G9a and GLP, similar conditions were used, except (500 µM) of SAM was added to the reaction mixture. Samples were incubated in an Eppendorf vial 1.5 mL using thermomixer for 1 h at 37 °C. A 5 µL aliquot of the solution was mixed with 5 µL of MeOH, after which 5 µL of this mixture was mixed with 5 µL of α-cyano-4-hydroxycinamic acid matrix (CHCA, 5 mg/mL in 125:125 µL acetonitrile/water). The spots were placed on a stainless steel MALDI plate (MS 96 target ground steel BC of Bruker, Germany). The mass corresponding to one monomethylation observed as +14 Da, dimethylation observed as +28 Da and trimethylation observed as +42 Da. The enzymatic activity was determined by taking the peak areas of each methylation state, including all isotopes and adducts, and was annotated using FlexAnalysis software (Bruker Daltonics, Germany). […] Methylated peptide substrates were repeated five times and the unmethylated substrates were triplicated. Sequences of the examined peptides are given in (Supplementary Table 1)."}, "SETD8 [2]": {"target": "T1, SETD8", "test": "Competition study between H4K20 and analog peptides with SETD8 (MALDI-MS)", "type": "biochemical", "settings": "SETD8, equimolar H4K20 (100 µM) and H4KCP20 (100 µM), SAM 200 µM, 1 h, 37 °C", "from_the_text": "Next, we carried out competition studies between histone peptides that bear lysine and its analogs. In the presence of SETD8, SAM and equimolar amounts of H4K20 and H4KCP20, we observed the formation of both monomethylated products, albeit a comparatively larger degree of monomethylation of H4K20 was found (70% of H4K20me, 40% of H4KCP20me). […] It is also possible that subtle differences in sterics and electronics of H4KCP20 when compared to H4K20 do contribute to observed differences in the degree of methylation in the competition experiment.\nFigure S31. MALDI-MS based assay showing ( a) SETD8-catalyzed monomethylation of […]\n(b) SETD8-catalyzed methylation of H4K20 (100 µM) in the presence of H4F 3a20 (100 µM) and SAM (200 µM) after 1 h at 37 °C; ( c) SETD8-catalyzed methylation of H4K20 (100 µM) in the presence of H4F 4a20 (100 µM) and SAM (200 µM) after 1 h at 37 °C; ( d) SETD8-catalyzed methylation of H4K20 (100 µM) in the presence of H4A p20 (100 µM) and SAM (200 µM) after 1 h at 37 °C; ( e) SETD8-catalyzed methylation of H4K20 (100 µM) in the presence of […]\n(1 picture or pasted object on this page, not shown here)"}, "SETD8 [3]": {"target": "T1, SETD8", "test": "Enzyme kinetics of SETD8-catalyzed methylation (MALDI-TOF MS)", "type": "biochemical", "settings": "MALDI-TOF MS assay", "method": "To establish the substrate efficiency of lysine- and KCP-containing histone peptides, we carried out enzyme kinetics analysis, employing the MALDI-TOF MS assays. Both enzymes preferentially catalyze methylation of natural histone sequences, however, bulkier KCP-containing peptides still underwent favorable kinetics profiles (Table 1 and Supplementary Fig. 30).\n(§1) MALDI-MS methyltransferases activity experiments were performed using a Bruker instrument in the reflectron positive mode. For regular methyltransferase standard conditions experiment which carried out in 30 µL total volume, the mixture contains peptide (100 µM), SAM (200 µM), SETD8 or SETD7 (2 µM), in assay buffer 50 mM Tris at optimal pH 8.0. In case of G9a and GLP, similar conditions were used, except (500 µM) of SAM was added to the reaction mixture. Samples were incubated in an Eppendorf vial 1.5 mL using thermomixer for 1 h at 37 °C. A 5 µL aliquot of the solution was mixed with 5 µL of MeOH, after which 5 µL of this mixture was mixed with 5 µL of α-cyano-4-hydroxycinamic acid matrix (CHCA, 5 mg/mL in 125:125 µL acetonitrile/water). The spots were placed on a stainless steel MALDI plate (MS 96 target ground steel BC of Bruker, Germany). The mass corresponding to one monomethylation observed as +14 Da, dimethylation observed as +28 Da and trimethylation observed as +42 Da. The enzymatic activity was determined by taking the peak areas of each methylation state, including all isotopes and adducts, and was annotated using FlexAnalysis software (Bruker Daltonics, Germany). […] Methylated peptide substrates were repeated five times and the unmethylated substrates were triplicated. Sequences of the examined peptides are given in (Supplementary Table 1)."}, "SETD7 [4]": {"tested_on": "SETD7", "test": "MALDI-TOF MS methylation assay of H3K4 peptides with SETD7", "type": "biochemical, human", "settings": "peptide 100 µM, SETD7 2 µM, SAM 200 µM, 1 h, 37 °C", "method": "as §1"}, "SETD7 [5]": {"tested_on": "SETD7", "test": "MALDI-TOF MS methylation assay of H3K4 peptides with SETD7", "type": "biochemical, human", "settings": "peptide 100 µM, SETD7 10 µM, SAM 1 mM, 1 h and 3 h, 37 °C"}, "SETD7 [6]": {"tested_on": "SETD7", "test": "Inhibition study of SETD7 (MALDI-TOF MS)", "type": "biochemical, human", "settings": "peptide 100 µM, SETD7 100 nM, SAM 20 µM, 21-mer H3 peptide 5 µM, 30 min, 37 °C", "method": "A mixture of histone peptide (0–100 µM final conc.) and SETD7, G9a or GLP (100 nM final conc.) was preincubated for 5 minutes at 37 °C in 18 µL of 50 mM glycine pH 8.8 containing 2.5% glycerol as assay buffer. Then 2 µL of a pre-mixture of SAM (20 µM final conc.) and 21-mer H3 histone peptide (residues 1–21, 5 µM final conc.) was added to afford a final assay mixture (20 µL) and the enzymatic reaction was incubated for an additional 30 minutes at 37 °C before quenching with 20 μL of MeOH. The quenched reaction (1 μL) was mixed with a solution of saturated α-cyano-4-hydroxycinnamic acid (5 μL) and spotted on the MALDI plate for crystallisation. The enzymatic activity was determined by taking the peak areas of each methylation state (including all isotopes and adducts) and is expressed relative to a control reaction in the absence of unnatural histone peptides. Each inhibition experiment was carried out in replicate."}, "[7]": {"settings": "SETD8 2 µM, SAM 200 µM, 50 mM Tris pH 8.0, 1 h, MALDI-TOF MS"}}}
{"substance": "GGAKRHRK^20VLRDNIQ [H4K20, reference compound]", "values": [{"measurement": "SETD8-catalyzed methylation, result in words", "setting": "SETD8 [1]; [7]", "value": "quantitative monomethylation"}, {"measurement": "monomethylated product formed in competition experiment", "setting": "SETD8 [2]", "value": 70, "unit": "%"}]}
{"substance": "GGAKRHR(Kcp20)VLRDNIQ [H4KCP20, H4K20 peptide bearing cyclopropyllysine at position 20]", "values": [{"measurement": "SETD8-catalyzed methylation, result in words", "setting": "SETD8 [1]; [7]", "value": "methylation"}, {"measurement": "monomethylated product formed (H4KCP20me)", "setting": "SETD8 [1]; [7]", "value": 60, "unit": "%"}, {"measurement": "SETD8-catalyzed methylation, result in words, increased SETD8/SAM and prolonged incubation", "setting": "SETD8 [1]", "value": "almost complete formation of the monomethylated H4KCP20me product"}, {"measurement": "SETD8-catalyzed methylation, result in words, increased SETD8/SAM and prolonged incubation", "setting": "SETD8 [1]; listed as H4K CP20", "value": "predominant monomethylation"}, {"measurement": "Km", "setting": "SETD8 [3]", "value": "172 ± 37", "unit": "µM"}, {"measurement": "kcat", "setting": "SETD8 [3]", "value": "0.0113 ± 0.0013", "unit": "s⁻¹"}, {"measurement": "kcat/KM", "setting": "SETD8 [3]", "value": 66, "unit": "M⁻¹ s⁻¹"}, {"measurement": "monomethylated product formed in competition experiment", "setting": "SETD8 [2]", "value": 40, "unit": "%"}]}
{"substance": "ART(Kcp4)QTARKSTGGKA [H3KCP4, H3K4 peptide bearing cyclopropyllysine at position 4]", "values": [{"measurement": "SETD7-catalyzed methylation, result in words", "setting": "SETD7 [4]", "value": "only traces"}, {"measurement": "SETD7-catalyzed methylation, result in words", "setting": "SETD7 [4]; listed as H3K CP4", "value": "traces of monomethylation"}, {"measurement": "SETD7-catalyzed methylation, result in words, high SETD7/SAM", "setting": "SETD7 [5]", "value": "increased amount of the monomethylated H3KCP4me product"}, {"measurement": "SETD7-catalyzed methylation, result in words, high SETD7/SAM", "setting": "SETD7 [5]; listed as H3K CP4", "value": "monomethylation"}]}
{"substance": "ART(F4a4)QTARKSTGGKA [H3F4a4, H3K4 peptide bearing para-aminophenylalanine at position 4]", "values": [{"measurement": "SETD7-catalyzed methylation, result in words", "setting": "SETD7 [4]", "value": "lack of methylation"}, {"measurement": "inhibition of SETD7 at 100 µM peptide", "setting": "SETD7 [6]", "value": 11, "unit": "%"}]}
